Values of other authors in article PMC4871512, “Drug-Based Lead Discovery: The Novel Ablative Antiretroviral Profile of Deferiprone in HIV-1-Infected Cells and in HIV-Infected Treatment-Naive Subjects of a Double-Blind, Placebo-Controlled, Randomized Exploratory Trial” (PLoS ONE, 2016).

What was measured:
[1] = system: HIV-infected cell lines and HIV-infected primary cells; conditions: cited from earlier work
[2] = system: HIV-1; design: method as in PMID 8793010; conditions: culture; cited from earlier work
[3] = system: HIV-1; design: method as in PMID 9715844; conditions: cited from earlier work
[4] = system: DOHH; design: method as in PMID 12115536; conditions: clinically relevant concentrations; cited from earlier work
[5] = system: productively infected macrophages; design: method as in PMID 7973634; conditions: cited from earlier work
[6] = system: HIV-1; design: method as in PMID 8648207, PMID 9498441, PMID 9952363; conditions: after 12 weeks on monotherapy; cited from earlier work
[7] = system: human or mouse epithelia; design: method as in PMID 24086341; conditions: concentrations that ablate yeast and HIV-infected cells; cited from earlier work
[8] = clinically relevant concentrations

## NC(Cn1ccc(=O)c(O)c1)C(=O)O (stereo not drawn) [mimosine]
[1]; treated HIV-infected cells
  ribosomal presence of gag mRNA, amount of intra- and extracellular p24, budding of viral particles: suppress

## Cc1ccnc2c1NC(=O)c1cccnc1N2C1CC1 [nevirapine]
[2]
  time to viral breakthrough during monotherapy: ≥ 4 days

## CC(=O)N(O)CCCCCNC(=O)CCC(=O)N(O)CCCCCNC(=O)CCC(=O)N(O)CCCCCN [deferoxamine]
[3]
  dose-related antiretroviral effect in persons living with HIV-1: does not display a dose-related antiretroviral effect
[1]; [8]
  ablation of HIV-infected cells: does not ablate HIV-infected cells
  antiretroviral activity in culture: does not display antiretroviral activity in culture
[4]
  suppression of DOHH activity: does not achieve maximal suppression of DOHH activity

## NC(=O)NO [hydroxyurea]
[5]
  HIV-1 DNA: depleted HIV-1 DNA
  viral breakthrough: blocked breakthrough during three weeks of treatment
  viral rebound after cessation: did not allow rebound after cessation

## Cc1cn([C@H]2C[C@H](N=[N+]=[N-])[C@@H](CO)O2)c(=O)[nH]c1=O [zidovudine]
[6]
  viral load decline: -0.3 log10
[2]
  time to viral breakthrough during monotherapy: ≥ 4 days

## Cc1cc(C2CCCCC2)n(O)c(=O)c1 [ciclopirox, 6-cyclohexyl-1-hydroxy-4-methylpyridin-2[1H]-one]
[1]; ciclopirox at 30 μM
  off-drug re-emergence of HIV-1 RNA synthesis, compared with deferiprone: gave similar results
[1]
  antiretroviral activity of the paired 1,2-HOPO chelators: antiretrovirally active
[1]; up to 5 weeks of monotherapy
  viral breakthrough during monotherapy: neither allowed breakthrough
[7]
  acute toxicity at human or mouse epithelia: does not cause acute toxicity
